Consider eleven compounds from patent US11667649B2, “Heteroaromatic macrocyclic ether chemotherapeutic agents” (Nuvalent, Inc., priority 2020, dated 2023).

Where two headings read alike, the source gives them in different places.

The conditions of data set [1]: cc_pd bond, 12-membered ring.
A further data set deals with T1, TRKA-wt kinase domain (Homo sapiens, UniProt P04629).
T1 construct: TRKA-wt (1 nM, BPS Bio, 40280) kinase domains in buffer; purchased BPS Bio 40280
The data set can be described thus: Biochemical kinase assay, TRKA-wt. The note with it: 2 mM ATP substrate solution, read-out: Ki^app TRKA-wt. Summed up: (§1)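 Compound in DMSO added first, then substrate solution (ATP 2 mM; AQT0101 or AQT0104, 26 μM; pH 7.5 HEPES, 10 mM MgCl2), then kinase solution with enzyme at 0.5–3 nM depending on construct. Kinetic read every 2 min for 120 min at 30° C; Ki^app by Morrison regression.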

Another data set deals with T2, ALK-wt kinase domain (Homo sapiens, UniProt Q9UM73).
T2 construct: TRKA-wt (1 nM, BPS Bio, 40280) kinase domains in buffer; purchased Carna 08-518
The data set can be described thus: Biochemical kinase assay, ALK-wt. The note with it: 2 mM ATP substrate solution, read-out: Ki^app ALK-wt. Summed up: as §1

Data set [2] addresses T3, ROS1-G2032R kinase domain (Homo sapiens, UniProt P08922, G2032R).
T3 construct: TRKA-wt (1 nM, BPS Bio, 40280) kinase domains in buffer; purchased SignalChem R14-12BG
The data set can be described thus: Biochemical kinase assay, ROS1-G2032R. The conditions noted are these: 2 mM ATP substrate solution, read-out: Ki^app ROS1-G2032R. In outline:
as §1

The target of data set [3] is T4, ALK L1196M/G1202R kinase domain (Homo sapiens, UniProt Q9UM73, G1202R/L1196M).
T4 construct: TRKA-wt (1 nM, BPS Bio, 40280) kinase domains in buffer; purchased SignalChem A19-12NG
The data set can be described thus: Biochemical kinase assay, ALK L1196M/G1202R. The conditions noted are these: 2 mM ATP substrate solution, read-out: Ki^app ALK-L1196M-G1202R. In outline: as §1

The target of another data set is T5, ROS1-wt kinase domain (Homo sapiens, UniProt P08922).
T5 construct: TRKA-wt (1 nM, BPS Bio, 40280) kinase domains in buffer; purchased Carna 08-163
The data set can be described thus: Biochemical kinase assay, ROS1-wt. The conditions noted are these: 2 mM ATP substrate solution, read-out: Ki^app ROS1-wt. In outline:
as §1

Another data set relates to ROS1-positive NSCLC. The note with it: treatment of ROS1-positive NSCLC; cited from earlier work.
Data set [4] concerns TPM3-NTRK1-wt IC50 / primary target (e.g. CD74-ROS1-wt) IC50, Ba/F3 cells. The data set can be described thus: Cell assay TRKA selectivity (TRKA potency divided by primary target potency). In kind it is cell-based. In outline: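 Ratio of TRKA to primary-target cellular IC50 (e.g. TPM3-NTRK1-wt/CD74-ROS1-wt), grouped into bins A >30, B >10, C ≥1, D <1. Each IC50 came from engineered Ba/F3 fusion lines grown without IL-3, dosed for 72 h and read as CellTiter-Glo luminescence, with a four-parameter logistic fit.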

The compound `CC(Oc1cc(Br)cnc1N)c1cc(F)ccc1-c1c(Cn2cnc(C#N)c2)cnn1C` (stereo not shown) had a ring closure, yield after HPLC in data set [1] (the molecule shown is the open-chain precursor, Pd(OAc)2/cataCXium A/KOAc, 2-methyl-2-butanol, 30.0 mM, 120.0 °C) of 5.9%.
The compound `CC1Oc2cc(cnc2N)-c2c(nn(C)c2C#N)Cc2ccnn2-c2ccc(F)cc21` (stereo not shown) had a ring closure, yield after HPLC in data set [1] (from CC(Oc1cc(Br)cnc1N)c1cc(F)ccc1-n1nccc1Cc1cc(C#N)n(C)n1, Pd(OAc)2/cataCXium A/KOAc, 2-methyl-2-butanol, 20.0 mM, 120.0 °C) of 17%.
In turn, `CCc1noc2c1-c1cnc(N)c(n1)O[C@H](C)c1cc(F)ccc1-c1nn(C)cc1C2` showed a ring closure, yield after HPLC in data set [1] (from CCc1cc(Cc2cn(C)nc2-c2ccc(F)cc2[C@@H](C)Oc2nc(Br)cnc2N)on1, Pd(OAc)2/cataCXium A/KOAc, 2-methyl-2-butanol, 20.0 mM, 120.0 °C, 6.0 h) of 24%.
`CCn1ncc2c1-c1cnc(N)c(c1)OC(C)c1cc(F)ccc1-c1nccn1C2` (stereo not shown): the ring closure, yield after HPLC in data set [1] (from CCn1ncc(Cn2ccnc2-c2ccc(F)cc2C(C)Oc2cc(Br)cnc2N)c1Br, B2pin2/Pd(OAc)2/cataCXium A/NaOH, MeOH/H2O, 57.0 mM, 75.0 °C, 3.0 h) turned out to be 10%.
In data set [1] (from CCn1ncc(Cc2cn(C)nc2-c2ccc(F)cc2[C@@H](C)Oc2cc(Br)cnc2N)c1Br, B2pin2/Pd(OAc)2/cataCXium A/NaOH, MeOH/H2O, 41.0 mM, 80.0 °C, 12.0 h), `CCn1ncc2c1-c1cnc(N)c(c1)O[C@H](C)c1cc(F)ccc1-c1nn(C)cc1C2` showed a ring closure, yield after HPLC of 10%.
`C[C@H]1Oc2cc(cnc2N)-c2c(C#N)cnn2Cc2cn(C)nc2-c2ccc(F)cc21`: the ring closure, yield after HPLC in data set [1] (from C[C@@H](Oc1cc(Br)cnc1N)c1cc(F)ccc1-c1nn(C)cc1Cn1cc(C#N)cn1, Pd(OAc)2/cataCXium A/KOAc, 2-methyl-2-butanol, 32.0 mM, 120.0 °C) was determined as 15%.
As to `C[C@H]1Oc2cc(cnc2N)-c2c(nn(C)c2CC2CC2)Cc2cn(C)nc2-c2ccc(F)cc21` [Compound 179], the Ki at TRKA-wt kinase domain was 50 to 500 nM; on ALK-wt kinase domain, less than 50 nM; in data set [2], less than 50 nM; in data set [3], less than 50 nM; at ROS1-wt kinase domain, less than 50 nM.
With `C[C@H]1Oc2cc(cnc2N)-c2c(CC(F)F)nn(C)c2Cc2cc(C(F)F)nn2-c2ccc(F)cc21` [Compound 180], the Ki was 50 to 500 nM on TRKA-wt kinase domain; less than 50 nM on ALK-wt kinase domain; less than 50 nM in data set [2]; less than 50 nM in data set [3]; less than 50 nM at ROS1-wt kinase domain.
Consider `CCn1nc(OC)c2c1-c1cnc(N)c(c1)O[C@H](C)c1cc(F)ccc1-c1nn(C)cc1C2` [Compound 181], for which the Ki at TRKA-wt kinase domain is 50 to 500 nM; on ALK-wt kinase domain, less than 50 nM; in data set [2], less than 50 nM; in data set [3], less than 50 nM; at ROS1-wt kinase domain it was less than 50 nM.
`C[C@@H](Oc1cc(-c2cnn(C3CCNCC3)c2)cnc1N)c1c(Cl)ccc(F)c1Cl` [Crizotinib, crizotinib]: in the data set on ROS1-positive NSCLC, the median progression-free survival is 9-19 months and the overall response rate is reported as 60-80%.
Regarding `CCc1nn(C)c2c1-c1cnc(N)c(c1)OCc1cc(F)ccc1-c1ncccc1C2` [Example 170, 3-ethyl-17-fluoro-5-methyl-21-oxa-4,5,12,24-tetraazapentacyclo[20.3.1.0^2,^6.0^8,^13.0^14,^19]hexacosa-1(25),2(6),3,8(13),9,11,14,16,18,22(26),23-undecaen-23-amine], the TPM3-NTRK1-wt/CD74-ROS1-G2032R entry in data set [4] (TRKA selectivity ratio: TPM3-NTRK1-wt IC50 / CD74-ROS1-G2032R IC50, Ba/F3 cells) is listed as “A (bin A for very high selectivity, ratio>30-fold)”. The TPM3-NTRK1-wt/CD74-ROS1-wt entry in data set [4] (TRKA selectivity ratio: TPM3-NTRK1-wt IC50 / CD74-ROS1-wt IC50, Ba/F3 cells) is listed as “A (bin A for very high selectivity, ratio>30-fold)”. Moreover, the TPM3-NTRK1-wt/EML4-ALK-L1196M-G1202R entry in data set [4] (TRKA selectivity ratio: TPM3-NTRK1-wt IC50 / EML4-ALK-L1196M-G1202R IC50, Ba/F3 cells) is on record as “B (bin B for high selectivity, ratio>10-fold)”. The TPM3-NTRK1-wt/EML4-ALK-wt entry in data set [4] (TRKA selectivity ratio: TPM3-NTRK1-wt IC50 / EML4-ALK-wt IC50, Ba/F3 cells) is “A (bin A for very high selectivity, ratio>30-fold)”. In data set [1] (from CCc1nn(C)c(Cc2cccnc2-c2ccc(F)cc2COc2cc(Br)cnc2N)c1Br, B2pin2/Pd(OAc)2/cataCXium A/CsF, MeOH/H2O, 17.0 mM, 80.0 °C, 5.0 h), this compound yielded a ring closure, yield after HPLC of 3.3%.
